In the experiment the target is Neuronal acetylcholine receptor; alpha9/alpha10 (Homo sapiens) (UniProt Q9UGM1+Q9GZZ6). The experiment in a line: Antagonist activity at human alpha9alpha10 nAChR expressed in Xenopus laevis oocytes assessed as inhibition of ACh-induced current amplitude at -80 mV holding potential at 100 nM by two-electrode voltage clamp method. The note with it: Oocyte. The experiment is classed as cell-based. In general terms: Two-electrode voltage clamp is typically applied to oocytes expressing channels or transporters.

Calls of active or inactive are those of the source. The rule behind the calls is not given here. Positions of bridges follow the written chain, without caps; N, C: chain ends. Non-standard residues stand in square brackets, D forms with d. Residues, ends and D or L forms follow the SMILES beside them. ξ: configuration not given here. Cit = NC(=O)NCCC[C@H](N)C(=O)O; Dap = NC[C@H](N)C(=O)O; ξDab = NCCC(N)C(=O)O; ξDap = NCC(N)C(=O)O

Regarding `CC[C@H](C)[C@@H]1NC(=O)[C@H](CC(=O)O)NC(=O)[C@@H]2CCCN2C(=O)[C@H](CC(N)=O)NC(=O)[C@H](CC(N)=O)NC(=O)[C@H](C(C)C)NC(=O)[C@H](CO)NC(=O)[C@@H]2CSSC[C@H](NC(=O)CN)C(=O)N[C@@H](CSSC[C@@H](C(=O)N[C@@H](CC(C)C)C(N)=O)NC1=O)C(=O)N[C@@H](CO)C(=O)N[C@@H](Cc1cnc[nH]1)C(=O)N1CCC[C@H]1C(=O)N[C@@H](C)C(=O)N2` (H-GCCSHPACSVNNPDICL-NH2; disulfide 2-8, 3-16), the inhibition was determined as 15%.

Consider `CC[C@H](C)[C@@H]1NC(=O)[C@H](CC(=O)O)NC(=O)[C@@H]2CCCN2C(=O)[C@H](CC(N)=O)NC(=O)[C@H](CC(N)=O)NC(=O)[C@H](C(C)C)NC(=O)[C@H](CO)NC(=O)[C@@H]2CSSC[C@H](NC(=O)CN)C(=O)N[C@@H](CSSC[C@@H](C(N)=O)NC1=O)C(=O)N[C@@H](CO)C(=O)N[C@@H](CCCNC(=N)N)C(=O)N1CCC[C@H]1C(=O)N[C@@H](C)C(=O)N2` (H-GCCSRPACSVNNPDIC-NH2; disulfide 2-8, 3-16), for which the inhibition came out at 10%.

Take `CC[C@H](C)[C@@H]1NC(=O)[C@H](CC(=O)O)NC(=O)[C@@H]2CCCN2C(=O)[C@H](CC(N)=O)NC(=O)[C@H](CC(N)=O)NC(=O)[C@H](C(C)C)NC(=O)C(CN)NC(=O)[C@@H]2CSSC[C@H](NC(=O)CN)C(=O)N[C@@H](CSSC[C@@H](C(N)=O)NC1=O)C(=O)N[C@@H](CO)C(=O)N[C@@H](Cc1cnc[nH]1)C(=O)N1CCC[C@H]1C(=O)N[C@@H](C)C(=O)N2` (stereo not given in full) (H-GCCSHPAC[ξDap]VNNPDIC-NH2; disulfide 2-8, 3-16): the inhibition (filed as antagonist) is 80%. Take `CC[C@H](C)[C@@H]1NC(=O)[C@H](CC(=O)O)NC(=O)[C@@H]2CCCN2C(=O)[C@H](CC(N)=O)NC(=O)[C@H](CC(N)=O)NC(=O)[C@H](C(C)C)NC(=O)[C@H](CN)NC(=O)[C@@H]2CSSC[C@H](NC(=O)CN)C(=O)N[C@@H](CSSC[C@@H](C(N)=O)NC1=O)C(=O)N[C@@H](CO)C(=O)N[C@@H](Cc1c[nH]cn1)C(=O)N1CCC[C@H]1C(=O)N[C@@H](C)C(=O)N2` (H-GCCSHPAC[Dap]VNNPDIC-NH2; disulfide 2-8, 3-16): the inhibition entry (filed as antagonist) was “Active”. Same read-out and setting: the value for `CC[C@H](C)[C@@H]1NC(=O)[C@H](CC(=O)O)NC(=O)[C@@H]2CCCN2C(=O)[C@H](CC(N)=O)NC(=O)[C@H](CC(N)=O)NC(=O)C(CN)NC(=O)[C@H](CO)NC(=O)[C@@H]2CSSC[C@H](NC(=O)CN)C(=O)N[C@@H](CSSC[C@@H](C(N)=O)NC1=O)C(=O)NC(CN)C(=O)N[C@@H](Cc1cnc[nH]1)C(=O)N1CCC[C@H]1C(=O)N[C@@H](C)C(=O)N2` (stereo not given in full) (H-GCC[ξDap]HPACS[ξDap]NNPDIC-NH2; disulfide 2-8, 3-16) was greater than 95%.

As for `CC[C@H](C)[C@@H]1NC(=O)[C@H](CC(=O)O)NC(=O)[C@@H]2CCCN2C(=O)[C@H](CC(N)=O)NC(=O)[C@H](CC(N)=O)NC(=O)[C@H](CC(=O)O)NC(=O)[C@H](CO)NC(=O)[C@@H]2CSSC[C@H](NC(=O)CN)C(=O)N[C@@H](CSSC[C@@H](C(N)=O)NC1=O)C(=O)N[C@@H](CO)C(=O)N[C@@H](Cc1cnc[nH]1)C(=O)N1CCC[C@H]1C(=O)N[C@@H](C)C(=O)N2` (H-GCCSHPACSDNNPDIC-NH2; disulfide 2-8, 3-16), the inhibition was less than 5%. Consider `CC[C@H](C)[C@@H]1NC(=O)[C@H](CC(=O)O)NC(=O)[C@@H]2CCCN2C(=O)[C@H](CC(N)=O)NC(=O)[C@H](CC(N)=O)NC(=O)[C@H](CCCNC(N)=O)NC(=O)[C@H](CO)NC(=O)[C@@H]2CSSC[C@H](NC(=O)CN)C(=O)N[C@@H](CSSC[C@@H](C(N)=O)NC1=O)C(=O)N[C@@H](CO)C(=O)N[C@@H](Cc1cnc[nH]1)C(=O)N1CCC[C@H]1C(=O)N[C@@H](C)C(=O)N2` (H-GCCSHPACS[Cit]NNPDIC-NH2; disulfide 2-8, 3-16), for which the inhibition was less than 5%.

For the compound `CC[C@H](C)[C@@H]1NC(=O)[C@H](CC(=O)O)NC(=O)[C@@H]2CCCN2C(=O)[C@H](CC(N)=O)NC(=O)[C@H](CC(N)=O)NC(=O)[C@H](C(C)C)NC(=O)[C@H](CO)NC(=O)[C@@H]2CSSC[C@H](NC(=O)CN)C(=O)N[C@@H](CSSC[C@@H](C(N)=O)NC1=O)C(=O)N[C@@H]([C@@H](C)O)C(=O)N[C@@H](Cc1cnc[nH]1)C(=O)N1CCC[C@H]1C(=O)N[C@@H](C)C(=O)N2` (H-GCCTHPACSVNNPDIC-NH2; disulfide 2-8, 3-16), the inhibition came to 10%. Consider `CC[C@H](C)[C@@H]1NC(=O)[C@H](CC(=O)O)NC(=O)[C@@H]2CCCN2C(=O)[C@H](CC(N)=O)NC(=O)[C@H](CC(N)=O)NC(=O)[C@H](CCCNC(=N)N)NC(=O)[C@H](CO)NC(=O)[C@@H]2CSSC[C@H](NC(=O)CN)C(=O)N[C@@H](CSSC[C@@H](C(N)=O)NC1=O)C(=O)N[C@@H](CO)C(=O)N[C@@H](Cc1cnc[nH]1)C(=O)N1CCC[C@H]1C(=O)N[C@@H](C)C(=O)N2` (H-GCCSHPACSRNNPDIC-NH2; disulfide 2-8, 3-16), for which the inhibition (filed as antagonist) amounted to 60%.

As for `CC[C@H](C)[C@@H]1NC(=O)[C@H](CC(=O)O)NC(=O)[C@@H]2CCCN2C(=O)[C@H](CC(N)=O)NC(=O)[C@H](CC(N)=O)NC(=O)[C@H](C(C)C)NC(=O)C(CN)NC(=O)[C@@H]2CSSC[C@H](NC(=O)CN)C(=O)N[C@@H](CSSC[C@@H](C(N)=O)NC1=O)C(=O)NC(CN)C(=O)N[C@@H](Cc1cnc[nH]1)C(=O)N1CCC[C@H]1C(=O)N[C@@H](C)C(=O)N2` (stereo not given in full) (H-GCC[ξDap]HPAC[ξDap]VNNPDIC-NH2; disulfide 2-8, 3-16), the inhibition (filed as antagonist) was greater than 95%. For the compound `CC[C@H](C)[C@@H]1NC(=O)[C@H](CC(=O)O)NC(=O)[C@@H]2CCCN2C(=O)[C@H](CC(N)=O)NC(=O)[C@H](CC(N)=O)NC(=O)C(CCN)NC(=O)[C@H](CO)NC(=O)[C@@H]2CSSC[C@H](NC(=O)CN)C(=O)N[C@@H](CSSC[C@@H](C(N)=O)NC1=O)C(=O)N[C@@H](CO)C(=O)N[C@@H](Cc1cnc[nH]1)C(=O)N1CCC[C@H]1C(=O)N[C@@H](C)C(=O)N2` (stereo not given in full) (H-GCCSHPACS[ξDab]NNPDIC-NH2; disulfide 2-8, 3-16), the inhibition came to 35%. Also, the inhibition result (filed as antagonist) is “Active”. Consider `CC[C@H](C)[C@@H]1NC(=O)[C@H](CC(=O)O)NC(=O)[C@@H]2CCCN2C(=O)[C@H](CC(N)=O)NC(=O)[C@H](CC(N)=O)NC(=O)[C@H](C(C)C)NC(=O)[C@H](CO)NC(=O)[C@@H]2CSSC[C@H](NC(=O)CN)C(=O)N[C@@H](CSSC[C@@H](C(=O)N[C@@H](Cc3ccc(O)cc3)C(N)=O)NC1=O)C(=O)N[C@@H](CO)C(=O)N[C@@H](Cc1cnc[nH]1)C(=O)N1CCC[C@H]1C(=O)N[C@@H](C)C(=O)N2` (H-GCCSHPACSVNNPDICY-NH2; disulfide 2-8, 3-16), for which the inhibition is 15%. For `CC[C@H](C)[C@@H]1NC(=O)[C@H](CC(=O)O)NC(=O)[C@@H]2CCCN2C(=O)[C@H](CC(N)=O)NC(=O)[C@H](CC(N)=O)NC(=O)[C@H](CN)NC(=O)[C@H](CO)NC(=O)[C@@H]2CSSC[C@H](NC(=O)CN)C(=O)N[C@@H](CSSC[C@@H](C(N)=O)NC1=O)C(=O)N[C@@H](CO)C(=O)N[C@@H](Cc1c[nH]cn1)C(=O)N1CCC[C@H]1C(=O)N[C@@H](C)C(=O)N2` (H-GCCSHPACS[Dap]NNPDIC-NH2; disulfide 2-8, 3-16), the inhibition entry (filed as antagonist) is “Active”.

Regarding `CC[C@H](C)[C@@H]1NC(=O)[C@H](CC(=O)O)NC(=O)[C@@H]2CCCN2C(=O)[C@H](CC(N)=O)NC(=O)[C@H](CC(N)=O)NC(=O)[C@H](C(C)C)NC(=O)[C@H](CO)NC(=O)[C@@H]2CSSC[C@H](NC(=O)CN)C(=O)N[C@@H](CSSC[C@@H](C(N)=O)NC1=O)C(=O)N[C@@H](CCCNC(=N)N)C(=O)N[C@@H](Cc1cnc[nH]1)C(=O)N1CCC[C@H]1C(=O)N[C@@H](C)C(=O)N2` (H-GCCRHPACSVNNPDIC-NH2; disulfide 2-8, 3-16), the inhibition (filed as antagonist) was greater than 85%. Still for that read-out and setting: next, `CC[C@H](C)[C@@H]1NC(=O)[C@H](CC(=O)O)NC(=O)[C@@H]2CCCN2C(=O)[C@H](CC(N)=O)NC(=O)[C@H](CC(N)=O)NC(=O)[C@H](C(C)C)NC(=O)[C@H](CO)NC(=O)[C@@H]2CSSC[C@H](NC(=O)CN)C(=O)N[C@@H](CSSC[C@@H](C(N)=O)NC1=O)C(=O)NC(CCN)C(=O)N[C@@H](Cc1cnc[nH]1)C(=O)N1CCC[C@H]1C(=O)N[C@@H](C)C(=O)N2` (stereo not given in full) (H-GCC[ξDab]HPACSVNNPDIC-NH2; disulfide 2-8, 3-16): greater than 85%. Regarding `CC[C@H](C)[C@@H]1NC(=O)[C@H](CC(=O)O)NC(=O)[C@@H]2CCCN2C(=O)[C@H](CC(N)=O)NC(=O)[C@H](CC(N)=O)NC(=O)[C@H](C(C)C)NC(=O)C(CCN)NC(=O)[C@@H]2CSSC[C@H](NC(=O)CN)C(=O)N[C@@H](CSSC[C@@H](C(N)=O)NC1=O)C(=O)N[C@@H](CO)C(=O)N[C@@H](Cc1cnc[nH]1)C(=O)N1CCC[C@H]1C(=O)N[C@@H](C)C(=O)N2` (stereo not given in full) (H-GCCSHPAC[ξDab]VNNPDIC-NH2; disulfide 2-8, 3-16), the inhibition came to 15%.

For the compound `CC[C@H](C)[C@@H]1NC(=O)[C@H](CC(=O)O)NC(=O)[C@@H]2CCCN2C(=O)[C@H](CC(N)=O)NC(=O)[C@H](CC(N)=O)NC(=O)C(CN)NC(=O)[C@H](CO)NC(=O)[C@@H]2CSSC[C@H](NC(=O)CN)C(=O)N[C@@H](CSSC[C@@H](C(N)=O)NC1=O)C(=O)N[C@@H](CO)C(=O)N[C@@H](Cc1cnc[nH]1)C(=O)N1CCC[C@H]1C(=O)N[C@@H](C)C(=O)N2` (stereo not given in full) (H-GCCSHPACS[ξDap]NNPDIC-NH2; disulfide 2-8, 3-16), for the setting “filed as antagonist”, the inhibition is greater than 90%.

Take `CC[C@H](C)[C@@H]1NC(=O)[C@H](CC(=O)O)NC(=O)[C@@H]2CCCN2C(=O)[C@H](CC(N)=O)NC(=O)[C@H](CC(N)=O)NC(=O)[C@H](C(C)C)NC(=O)[C@H](CO)NC(=O)[C@@H]2CSSC[C@H](NC(=O)CN)C(=O)N[C@@H](CSSC[C@@H](C(=O)N[C@@H](CCCNC(=N)N)C(N)=O)NC1=O)C(=O)N[C@@H](CO)C(=O)N[C@@H](Cc1cnc[nH]1)C(=O)N1CCC[C@H]1C(=O)N[C@@H](C)C(=O)N2` (H-GCCSHPACSVNNPDICR-NH2; disulfide 2-8, 3-16): the inhibition (filed as antagonist) turned out to be 60%. On to `CC[C@H](C)[C@@H]1NC(=O)[C@H](CC(=O)O)NC(=O)[C@@H]2CCCN2C(=O)[C@H](CC(N)=O)NC(=O)[C@H](CC(N)=O)NC(=O)[C@H](C(C)C)NC(=O)[C@H](Cc2ccc(O)cc2)NC(=O)[C@@H]2CSSC[C@H](NC(=O)CN)C(=O)N[C@@H](CSSC[C@@H](C(N)=O)NC1=O)C(=O)N[C@@H](CO)C(=O)N[C@@H](Cc1cnc[nH]1)C(=O)N1CCC[C@H]1C(=O)N[C@@H](C)C(=O)N2` (H-GCCSHPACYVNNPDIC-NH2; disulfide 2-8, 3-16), for which the inhibition was found to be 5%.

Usually inhibition stands for the percentage by which the read-out fell short of the control.

Source of the values: ChEMBL document CHEMBL5150017, “Mechanism of Action and Structure-Activity Relationship of α-Conotoxin Mr1.1 at the Human α9α10 Nicotinic Acetylcholine Receptor” (J Med Chem, 2022).
